PubChem BioAssay (NCI)
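Five compound concentrations were applied to cells in 96-well plates for 48 hours; endpoints were derived by simple linear interpolation of the resulting dose-response curve. The concentration for 50% growth inhibition is given as GI50. TGI: concentration producing complete growth inhibition.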

Key:
Assay in all cases: NCI tumour cell line growth inhibition, 48 h
COLO 205 colon = tested on: COLO 205 colon
HCT-15 colon = tested on: HCT-15 colon
M14 melanoma = tested on: M14 melanoma
NCI-H23 lung = tested on: NCI-H23 lung
SK-MEL-2 melanoma = tested on: SK-MEL-2 melanoma
A549 NSCLC = tested on: A549 NSCLC
LOX IMVI melanoma = tested on: LOX IMVI melanoma
MDA-MB-435 = tested on: MDA-MB-435
BT-549 breast = tested on: BT-549 breast
OVCAR-3 ovarian = tested on: OVCAR-3 ovarian

| SMILES | GI50 (COLO 205 colon) [µM] | TGI (COLO 205 colon) [µM] | GI50 (HCT-15 colon) [µM] | TGI (HCT-15 colon) [µM] | GI50 (M14 melanoma) [µM] | TGI (M14 melanoma) [µM] | GI50 (NCI-H23 lung) [µM] | TGI (NCI-H23 lung) [µM] | GI50 (SK-MEL-2 melanoma) [µM] | TGI (SK-MEL-2 melanoma) [µM] | GI50 (A549 NSCLC) [µM] | TGI (A549 NSCLC) [µM] | GI50 (LOX IMVI melanoma) [µM] | TGI (LOX IMVI melanoma) [µM] | GI50 (MDA-MB-435) [µM] | TGI (MDA-MB-435) [µM] | GI50 (BT-549 breast) [µM] | TGI (BT-549 breast) [µM] | GI50 (OVCAR-3 ovarian) [µM] | TGI (OVCAR-3 ovarian) [µM] |
| --- | --- | --- | --- | --- | --- | --- | --- | --- | --- | --- | --- | --- | --- | --- | --- | --- | --- | --- | --- | --- |
| O=C1OCC(C#Cc2ccccc2)=C1Cl | 2.33 | 7.79 | 4.36 | 15.7 | 3.88 | 16.4 | 14 | 26.9 | 8.61 | 40.7 | 5.02 | > 100 | 4.31 | 14.9 | 6.92 | 42.6 | 7.87 | 33.4 | 1.9 | 10.8 |
| CC(=O)Nc1ncc(Sc2ccccc2C(=O)O)s1 |  | > 100 |  | > 100 |  | > 100 |  | > 100 |  | > 100 |  | > 100 |  | > 100 |  | > 100 |  | > 100 |  | > 100 |
| CC(=O)C1=C(N=[N+]=[N-])c2cccc3cccc(c23)C1=O |  | 31.7 |  | 32 |  | 26.5 |  | 43.4 |  | 31.4 |  | > 100 |  | 30.1 |  | 48.5 |  | 46.2 |  | 24.6 |
| CC(NS(C)(=O)=O)c1ccccc1 (stereo not given) |  | > 100 |  | > 100 |  | > 100 |  | > 100 |  | > 100 |  | > 100 |  | > 100 |  | > 100 |  | > 100 |  | > 100 |
